Measurements: patent publication US20070010671A1, “Novel quinazoline derivatives and methods of treatment related to the use thereof” (priority 2003, published 2007)

Target: MCH receptor (Homo sapiens, UniProt Q99705)
Assay: High throughput functional screening FLIPR/FDSS6000: inhibition of MCH-evoked intracellular Ca2+ changes
Assay type: cell-based
Conditions: class by percent of control at 10^-7 M or IC50
Summary of the method: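 Cells expressing constitutively active MCH receptor, loaded with 4 μM Fluo4-AM for 1 h at 37 °C, were pretreated 3 min with compound, then challenged with MCH (50 nM for antagonist testing). MCH-evoked [Ca2+]i transients followed by FLIPR or FDSS (ex 488/em 530 nm) over 290 s.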

Structure (SMILES) | class
CN(C)c1nc(N[C@H]2CC[C@@H](CNC(=S)Nc3ccc(OCc4ccccc4)cc3)CC2)nc2ccccc12 [compound 690] | 3 (Class 3: The value of percent of control at 10^−7 M was more than 60% or the value of IC50 was more than 200 nM.)
Cc1cc(Br)cc(C)c1NC(=S)NC[C@H]1CC[C@@H](Nc2nc(N(C)C)c3ccccc3n2)CC1 [compound 691, N-(4-bromo-2,6-dimethylphenyl)-N′-[(cis-4-{[4-(dimethylamino)quinazolin-2-yl]amino}cyclohexyl)methyl]thiourea] | 1 (Class 1: The value of percent of control at 10^−7 M was less than 40% or the value of IC50 was less than 50 nM.)
Cc1cc(Br)ccc1NC(=S)NC[C@H]1CC[C@@H](Nc2nc(N(C)C)c3ccccc3n2)CC1 [compound 692] | 3 (Class 3: The value of percent of control at 10^−7 M was more than 60% or the value of IC50 was more than 200 nM.)
CN(C)c1nc(N[C@H]2CC[C@@H](CNC(=S)Nc3ccc(Br)cc3C(F)(F)F)CC2)nc2ccccc12 [compound 693, N-[4-bromo-2-(trifluoromethyl)phenyl]-N′-[(cis-4-{[4-(dimethylamino)quinazolin-2-yl]amino}cyclohexyl)methyl]thiourea] | 2 (Class 2: The value of percent of control at 10^−7 M was from 40% to 60% or the value of IC50 was from 50 nM to 200 nM.)
Cc1cc(Cl)ccc1NC(=S)NC[C@H]1CC[C@@H](Nc2nc(N(C)C)c3ccccc3n2)CC1 [compound 694] | 3 (Class 3: The value of percent of control at 10^−7 M was more than 60% or the value of IC50 was more than 200 nM.)
CN(C)c1nc(N[C@H]2CC[C@@H](CNC(=S)NCc3ccc(Cl)cc3)CC2)nc2ccccc12 [compound 695] | 3 (Class 3: The value of percent of control at 10^−7 M was more than 60% or the value of IC50 was more than 200 nM.)
CCOC(=O)c1ccc(NC(=S)NC[C@H]2CC[C@@H](Nc3nc(N(C)C)c4ccccc4n3)CC2)cc1 [compound 696] | 3 (Class 3: The value of percent of control at 10^−7 M was more than 60% or the value of IC50 was more than 200 nM.)
CN(C)c1nc(N[C@H]2CC[C@@H](CNC(=S)NCc3ccc(F)cc3)CC2)nc2ccccc12 [compound 698] | 3 (Class 3: The value of percent of control at 10^−7 M was more than 60% or the value of IC50 was more than 200 nM.)
CC(C)c1ccc(NC(=S)NC[C@H]2CC[C@@H](Nc3nc(N(C)C)c4ccccc4n3)CC2)cc1 [compound 699] | 3 (Class 3: The value of percent of control at 10^−7 M was more than 60% or the value of IC50 was more than 200 nM.)
COc1ccc(NC(=S)NC[C@H]2CC[C@@H](Nc3nc(N(C)C)c4ccccc4n3)CC2)c([N+](=O)[O-])c1 [compound 700] | 3 (Class 3: The value of percent of control at 10^−7 M was more than 60% or the value of IC50 was more than 200 nM.)
COc1ccc(CNC(=S)NC[C@H]2CC[C@@H](Nc3nc(N(C)C)c4ccccc4n3)CC2)cc1 [compound 701] | 3 (Class 3: The value of percent of control at 10^−7 M was more than 60% or the value of IC50 was more than 200 nM.)
COC(=O)c1ccc(NC(=S)NC[C@H]2CC[C@@H](Nc3nc(N(C)C)c4ccccc4n3)CC2)cc1 [compound 702] | 3 (Class 3: The value of percent of control at 10^−7 M was more than 60% or the value of IC50 was more than 200 nM.)
Cc1ccc(NC(=S)NC[C@H]2CC[C@@H](Nc3nc(N(C)C)c4ccccc4n3)CC2)c([N+](=O)[O-])c1 [compound 703] | 3 (Class 3: The value of percent of control at 10^−7 M was more than 60% or the value of IC50 was more than 200 nM.)
Cc1ccc(CNC(=S)NC[C@H]2CC[C@@H](Nc3nc(N(C)C)c4ccccc4n3)CC2)cc1 [compound 704] | 3 (Class 3: The value of percent of control at 10^−7 M was more than 60% or the value of IC50 was more than 200 nM.)
CCCCc1ccc(NC(=S)NC[C@H]2CC[C@@H](Nc3nc(N(C)C)c4ccccc4n3)CC2)cc1 [compound 705] | 3 (Class 3: The value of percent of control at 10^−7 M was more than 60% or the value of IC50 was more than 200 nM.)
COc1ccc(Cl)cc1NC(=S)NC[C@H]1CC[C@@H](Nc2nc(N(C)C)c3ccccc3n2)CC1 [compound 706] | 2 (Class 2: The value of percent of control at 10^−7 M was from 40% to 60% or the value of IC50 was from 50 nM to 200 nM.)
CN(C)c1nc(N[C@H]2CC[C@@H](CNC(=S)NC(c3ccccc3)c3ccccc3)CC2)nc2ccccc12 [compound 708, N-[(cis-4-{[4-(dimethylamino)quinazolin-2-yl]amino}cyclohexyl)methyl]-N′-(diphenylmethyl)thiourea] | 2 (Class 2: The value of percent of control at 10^−7 M was from 40% to 60% or the value of IC50 was from 50 nM to 200 nM.)
CN(C)c1nc(N[C@H]2CC[C@@H](CNC(=S)NC3CCCCCCCCCCC3)CC2)nc2ccccc12 [compound 709, N-cyclododecyl-N′-[(cis-4-{[4-(dimethylamino)quinazolin-2-yl]amino}cyclohexyl)methyl]thiourea] | 2 (Class 2: The value of percent of control at 10^−7 M was from 40% to 60% or the value of IC50 was from 50 nM to 200 nM.)
CN(C)c1nc(N[C@H]2CC[C@@H](CNC(=S)NCC3CCCCC3)CC2)nc2ccccc12 [compound 710, N-(cyclohexylmethyl)-N′-[(cis-4-{[4-(dimethylamino)quinazolin-2-yl]amino}cyclohexyl)methyl]thiourea] | 2 (Class 2: The value of percent of control at 10^−7 M was from 40% to 60% or the value of IC50 was from 50 nM to 200 nM.)

Structure (SMILES) | class
CN(C)c1nc(N[C@H]2CC[C@@H](CNC(=S)NC3CCCCCCC3)CC2)nc2ccccc12 [compound 711] | 3 (Class 3: The value of percent of control at 10^−7 M was more than 60% or the value of IC50 was more than 200 nM.)
CN(C)c1nc(N[C@H]2CC[C@@H](CNC(=S)NC3CC3)CC2)nc2ccccc12 [compound 712] | 3 (Class 3: The value of percent of control at 10^−7 M was more than 60% or the value of IC50 was more than 200 nM.)
CN(C)c1nc(N[C@H]2CC[C@@H](CNC(=S)NCc3cccc4ccccc34)CC2)nc2ccccc12 [compound 713] | 3 (Class 3: The value of percent of control at 10^−7 M was more than 60% or the value of IC50 was more than 200 nM.)
CN(C)c1nc(N[C@H]2CC[C@@H](CNC(=S)NCC(c3ccccc3)c3ccccc3)CC2)nc2ccccc12 [compound 714] | 3 (Class 3: The value of percent of control at 10^−7 M was more than 60% or the value of IC50 was more than 200 nM.)
CN(C)c1nc(N[C@H]2CC[C@@H](CNC(=S)Nc3c(Cl)c(Cl)cc(Cl)c3Cl)CC2)nc2ccccc12 [compound 715] | 1 (Class 1: The value of percent of control at 10^−7 M was less than 40% or the value of IC50 was less than 50 nM.)
COc1cccc(CNC(=S)NC[C@H]2CC[C@@H](Nc3nc(N(C)C)c4ccccc4n3)CC2)c1OC [compound 716] | 2 (Class 2: The value of percent of control at 10^−7 M was from 40% to 60% or the value of IC50 was from 50 nM to 200 nM.)
Cc1cc(C)c(NC(=S)NC[C@H]2CC[C@@H](Nc3nc(N(C)C)c4ccccc4n3)CC2)cc1C [compound 717] | 3 (Class 3: The value of percent of control at 10^−7 M was more than 60% or the value of IC50 was more than 200 nM.)
CN(C)c1nc(N[C@H]2CC[C@@H](CNC(=S)NCc3ccc(Cl)cc3Cl)CC2)nc2ccccc12 [compound 718] | 2 (Class 2: The value of percent of control at 10^−7 M was from 40% to 60% or the value of IC50 was from 50 nM to 200 nM.)
CN(C)c1nc(N[C@H]2CC[C@@H](CNC(=S)Nc3cc(Br)ccc3Br)CC2)nc2ccccc12 [compound 719] | 3 (Class 3: The value of percent of control at 10^−7 M was more than 60% or the value of IC50 was more than 200 nM.)
COc1ccc(OC)c(CCNC(=S)NC[C@H]2CC[C@@H](Nc3nc(N(C)C)c4ccccc4n3)CC2)c1 [compound 720] | 3 (Class 3: The value of percent of control at 10^−7 M was more than 60% or the value of IC50 was more than 200 nM.)
CN(C)c1nc(N[C@H]2CC[C@@H](CNC(=S)Nc3ccccc3-c3ccccc3)CC2)nc2ccccc12 [compound 721] | 3 (Class 3: The value of percent of control at 10^−7 M was more than 60% or the value of IC50 was more than 200 nM.)
CN(C)c1nc(N[C@H]2CC[C@@H](CNC(=S)Nc3cc([N+](=O)[O-])ccc3Cl)CC2)nc2ccccc12 [compound 722] | 3 (Class 3: The value of percent of control at 10^−7 M was more than 60% or the value of IC50 was more than 200 nM.)
CN(C)c1nc(N[C@H]2CC[C@@H](CNC(=S)Nc3ccccc3C#N)CC2)nc2ccccc12 [compound 723] | 3 (Class 3: The value of percent of control at 10^−7 M was more than 60% or the value of IC50 was more than 200 nM.)
CN(C)c1nc(N[C@H]2CC[C@@H](CNC(=S)NCc3ccccc3F)CC2)nc2ccccc12 [compound 724] | 3 (Class 3: The value of percent of control at 10^−7 M was more than 60% or the value of IC50 was more than 200 nM.)
COc1ccc([N+](=O)[O-])cc1NC(=S)NC[C@H]1CC[C@@H](Nc2nc(N(C)C)c3ccccc3n2)CC1 [compound 725] | 2 (Class 2: The value of percent of control at 10^−7 M was from 40% to 60% or the value of IC50 was from 50 nM to 200 nM.)
Cc1cc([N+](=O)[O-])ccc1NC(=S)NC[C@H]1CC[C@@H](Nc2nc(N(C)C)c3ccccc3n2)CC1 [compound 726] | 3 (Class 3: The value of percent of control at 10^−7 M was more than 60% or the value of IC50 was more than 200 nM.)
Cc1ccccc1CNC(=S)NC[C@H]1CC[C@@H](Nc2nc(N(C)C)c3ccccc3n2)CC1 [compound 727] | 3 (Class 3: The value of percent of control at 10^−7 M was more than 60% or the value of IC50 was more than 200 nM.)
COc1ccc(CNC(=S)NC[C@H]2CC[C@@H](Nc3nc(N(C)C)c4ccccc4n3)CC2)cc1OC [compound 728] | 3 (Class 3: The value of percent of control at 10^−7 M was more than 60% or the value of IC50 was more than 200 nM.)
CN(C)c1nc(N[C@H]2CC[C@@H](CNC(=S)NCc3cccc(Cl)c3)CC2)nc2ccccc12 [compound 729] | 3 (Class 3: The value of percent of control at 10^−7 M was more than 60% or the value of IC50 was more than 200 nM.)
